PubChem BioAssay (NCI)
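Growth conditions: 96-well plates. Treatment: test compound, 48 hours, 5 concentrations. Analysis: linear interpolation between bracketing concentrations; unreached endpoints set to highest concentration. TGI: total growth inhibition.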

Legend:
Assay in all cases: NCI anticancer screen, dose series, 48 h
A549 NSCLC = tested on: A549 NSCLC
HCT-116 colon = tested on: HCT-116 colon
HCT-15 colon = tested on: HCT-15 colon
HL-60(TB) leukemia = tested on: HL-60(TB) leukemia
K-562 leukemia = tested on: K-562 leukemia
M14 melanoma = tested on: M14 melanoma
MALME-3M melanoma = tested on: MALME-3M melanoma
MDA-MB-231 breast = tested on: MDA-MB-231 breast
NCI-H226 lung = tested on: NCI-H226 lung
NCI-H522 lung = tested on: NCI-H522 lung
OVCAR-5 ovarian = tested on: OVCAR-5 ovarian
SF-539 CNS = tested on: SF-539 CNS
SK-MEL-2 melanoma = tested on: SK-MEL-2 melanoma
SK-MEL-28 melanoma = tested on: SK-MEL-28 melanoma
SK-MEL-5 melanoma = tested on: SK-MEL-5 melanoma
SNB-19 CNS = tested on: SNB-19 CNS
SNB-75 CNS = tested on: SNB-75 CNS
UACC-62 melanoma = tested on: UACC-62 melanoma
SK-OV-3 ovarian = tested on: SK-OV-3 ovarian

Row | Structure (SMILES) | TGI (A549 NSCLC) [µM] | TGI (HCT-116 colon) [µM] | TGI (HCT-15 colon) [µM] | TGI (HL-60(TB) leukemia) [µM] | TGI (K-562 leukemia) [µM] | TGI (M14 melanoma) [µM] | TGI (MALME-3M melanoma) [µM] | TGI (MDA-MB-231 breast) [µM] | TGI (NCI-H226 lung) [µM] | TGI (NCI-H522 lung) [µM] | TGI (OVCAR-5 ovarian) [µM] | TGI (SF-539 CNS) [µM] | TGI (SK-MEL-2 melanoma) [µM] | TGI (SK-MEL-28 melanoma) [µM] | TGI (SK-MEL-5 melanoma) [µM] | TGI (SNB-19 CNS) [µM] | TGI (SNB-75 CNS) [µM] | TGI (UACC-62 melanoma) [µM] | TGI (SK-OV-3 ovarian) [µM]
1 | CCOc1cc(C2CC(c3ccc(NS(=O)(=O)c4cc([N+](=O)[O-])ccc4C)cc3)=NN2)ccc1O (centres undefined) | > 100 | 50.6 | 67.3 | 50.5 | 99 | 43.8 | 75.3 | 89.2 | > 100 | > 100 | > 100 | > 100 | 49.9 | > 100 | 37.8 | > 100 | 84 | 30.3 | –
2 | COC(=O)[C@@H]1C[C@@]2(C3C=CN(C(=O)C(F)(F)F)C=C3)c3ccccc3N(C(=O)C(F)(F)F)[C@H]2N1C(=O)OC | > 100 | > 100 | > 100 | > 100 | > 100 | > 100 | > 100 | > 100 | > 100 | > 100 | > 100 | > 100 | – | > 100 | > 100 | > 100 | > 100 | > 100 | > 100
3 | COc1ccc2nc3cc(Cl)ccc3c(NCCNCCCNC(=O)c3cc(-c4ccccc4)nc4ccccc34)c2c1 | > 100 | > 100 | > 100 | > 100 | > 100 | > 100 | > 100 | > 100 | > 100 | > 100 | > 100 | > 100 | – | > 100 | > 100 | > 100 | > 100 | > 100 | > 100
4 | COC(=O)[C@@]12CCCC(=O)[C@@H]1[C@H]1CCCC[C@H]12 | > 100 | > 100 | > 100 | – | > 100 | > 100 | > 100 | > 100 | > 100 | > 100 | > 100 | > 100 | > 100 | > 100 | > 100 | > 100 | > 100 | > 100 | > 100
5 | CC(=O)c1cc2ccccc2n(O)c1=N | > 100 | > 100 | > 100 | > 100 | – | > 100 | > 100 | > 100 | > 100 | > 100 | > 100 | > 100 | > 100 | > 100 | > 100 | – | – | > 100 | > 100
6 | CC(C)OP(=O)(OC(C)C)C(C(C)C)N(C)/C(F)=N/C(F)(F)F (centres undefined) | > 100 | > 100 | > 100 | > 100 | > 100 | > 100 | > 100 | > 100 | > 100 | > 100 | > 100 | > 100 | – | > 100 | > 100 | > 100 | > 100 | > 100 | > 100
7 | O=C(NCCCNCCNC(=O)c1cc(-c2ccccc2)nc2ccccc12)c1cc(-c2ccccc2)nc2ccccc12 | 3.13 | 3.04 | 3.23 | 4.3 | 4.45 | 3.95 | 3.43 | 3.52 | 5.05 | 3.14 | – | 3.57 | – | 3.26 | 3.03 | 3.93 | 2.83 | – | 6.34
8 | COc1cc(C2S/C(=C/c3ccccc3)C(=O)N2c2ccc(Cl)c(Cl)c2)cc(OC)c1OC (centres undefined) | > 100 | > 78.9 | > 100 | > 100 | > 100 | > 100 | > 100 | > 100 | > 100 | 51.4 | > 100 | – | > 59.6 | > 100 | > 100 | > 100 | – | – | > 100
9 | CCc1ccc2c(c1)CC1(C2)Cc2cc3c(cc2C1)C(=O)CC3 (centres undefined) | 71.8 | 29.9 | 67.3 | 15.6 | 11.9 | > 100 | 57.1 | 87.7 | 67 | 57.3 | > 100 | 61.4 | 16.8 | – | 16.9 | – | – | > 100 | > 100
10 | CN(C)CCNc1ncnc2nc(-c3ccc4ccccc4c3)[nH]c12 | > 100 | > 100 | > 100 | > 100 | > 100 | > 100 | > 100 | > 100 | > 100 | > 100 | > 100 | – | > 100 | > 100 | > 100 | > 100 | – | > 100 | > 100
11 | O=c1[nH]c2cc3[nH]c4ncccc4c(=O)c3cc2[nH]1 | > 10 | > 10 | > 10 | > 10 | – | > 10 | > 10 | > 10 | > 10 | > 10 | > 10 | > 10 | > 10 | > 10 | > 10 | > 10 | > 10 | > 10 | > 10
12 | C[n+]1c2ccccc2c(C(=O)Nc2ccc(S(=O)(=O)N=C(N)N)cc2)c2ccccc21 | > 100 | > 100 | > 100 | – | > 100 | > 100 | > 100 | 76.5 | > 100 | > 100 | > 100 | > 100 | > 100 | > 100 | > 100 | > 100 | > 100 | > 100 | > 100
13 | O=C1/C(=C2\Sc3c(ccc(Cl)c3Cl)C2=O)Sc2c1ccc(Cl)c2Cl | > 100 | > 100 | > 100 | – | > 100 | > 100 | > 100 | > 100 | > 100 | > 100 | > 100 | > 100 | > 100 | > 100 | > 100 | > 100 | > 100 | > 100 | –
